The term IC50 denotes the midpoint of a concentration-inhibition curve.

Test systems include HT29; T47D; SKOV3; LOX.
Holding throughout (experiment): Microculture tetrazolium assay
Common to all, as to type: cell-based

For a further test, the system named is SKVLB. To be noted: for VLB/OV3: IC50 ratio SKVLB/SKOV3; for IC50: SKVLB.
The mark [1] stands for this setting: Homo sapiens, HT-29, HT29, read-out: IC50.
[2] abbreviates: Homo sapiens, SK-OV-3, SKOV3, read-out: IC50.

“And” between values parts separate entries of the source, which are not always exact repeats. Equal entries are not always repeated. Structures can show the parent of a compound that is named as a salt. Where two headings read alike, the source gives them in different places.

Take `CC(=O)CC1CC2=C(C(=O)c3cc4ccccc4c(O)c3C2=O)C(O[C@H]2C[C@H](N)[C@H](O)[C@H](C)O2)O1` (mixture of isomers) [BCH-2111, (1'S,1R,3S) and (1'S,1S,3R)-3-6-hydroxy-1-(2',3',6'-trideoxy-3'-amino-4'-hydroxy-L-lyxohexopyranose-5,12-dioxo-3,4,5,12-tetrahydroanthraceno[2,3-c]pyran-3-yl)propanone hydrochloride]: the IC50 with HT29 (setting [1]) stood at 954 nM; in the test on T47D (Homo sapiens, read-out: IC50), 2420 nM; in the test on SKVLB (read-out: IC50) it was 11800 nM; in the test with SKOV3 (setting [2]), 2140 nM. The VLB/OV3 with SKVLB is 5.51.

In the case of `CC(=O)[C@@H]1CC2=C(C(=O)c3cc4ccccc4c(O)c3C2=O)[C@@H](O[C@H]2C[C@H](NC(=O)C(F)(F)F)[C@H](O)[C@H](C)O2)O1` [BCH-730, (1S',1R,3S)-Methyl-(6-hydroxy-1-(3'-trifluoroacyldaunosamine)-5,12-dioxo-3,4,5,12-tetrahydroanthraceno[2,3-C]pyran-3-yl) ketone], the IC50 is 1780 nM with LOX; 1660 nM in the test on LOX (read-out: IC50); 3620 nM with T47D (Homo sapiens, read-out: IC50); 3080 nM with T47D (read-out: IC50); 2010 nM and 2880 nM with SKVLB (read-out: IC50); 3520 nM with SKOV3 (setting [2]).

Regarding `CC(=O)C1Cc2c(O)c3c(c(O)c2C(O[C@H]2C[C@H](N4CCOCC4)[C@H](O)[C@H](C)O2)O1)C(=O)c1ccccc1C3=O` (some centres unmarked) [BCH-1193], the IC50 was 1040 nM and 940 nM with HT29 (HT29); 2570 nM and 4160 nM in the test with T47D; 4790 nM and 4920 nM in the test on SKVLB; 1950 nM in the test with SKOV3 (SKOV3). The VLB/OV3 in the test with SKVLB turned out to be 2.46.

`COC(=O)[C@H](C)O[C@@H]1OC(C(=O)OC)(C(=O)OC)CC2=C1C(=O)c1cc3ccccc3c(O)c1C2=O` [BCH-1668, (1R,1'S)-3,3-Bis-carbomethoxy-1-(1'-carbomethoxyethoxy)-5,12-dioxo-6-hydroxy-3,4,5,12-tetrahydroanthraceno[2,3-C]pyran]: the IC50 was determined as 5700 nM in the test on HT29 (setting [1]), 5200 nM in the test with LOX (read-out: IC50), 6200 nM in the test on SKVLB (read-out: IC50) and 6200 nM in the test with SKOV3 (setting [2]).

On to `CC(=O)C1CC2=C(C(=O)c3cc4ccccc4c(O)c3C2=O)C(OC[C@H](O)CO)O1` (some centres unmarked) [BCH-1669], for which the IC50 in the test with HT29 (setting [1]) was determined as 591 nM; with LOX (read-out: IC50), 631 nM; in the test with SKVLB (read-out: IC50), 1050 nM; with SKOV3 (setting [2]), 1210 nM. Also, in the test on SKVLB, the VLB/OV3 is 0.87.

Take `CC(=O)C1CC2=C(C(=O)c3cc4ccccc4c(O)c3C2=O)C(OC[C@@H](O)CO)S1` (some centres unmarked) [BCH-1670]: the IC50 turned out to be 342 nM in the test on HT29 (setting [1]), 673 nM in the test on LOX (read-out: IC50), 680 nM with SKVLB (read-out: IC50) and 547 nM in the test with SKOV3 (setting [2]). For the same compound, in the test on SKVLB, the VLB/OV3 worked out at 1.24.

Take `CC(=O)[C@@H]1Cc2c(O)c3c(c(O)c2[C@@H](O[C@@H]2O[C@@H](C)[C@@H](O)[C@@H](O)C2I)O1)C(=O)c1ccccc1C3=O` (some centres unmarked) [BCH-1672]: the IC50 in the test on HT29 (setting [1]) was found to be 1670 nM; in the test with LOX (read-out: IC50), 232 nM; with SKVLB (read-out: IC50) it was 990 nM; in the test on SKOV3 (setting [2]) it was 343 nM. In the test with SKVLB, the VLB/OV3 is listed as 2.89.

In the case of `C[C@@H]1O[C@@H](O[C@H]2O[C@H](C(C)(F)F)CC3=C2C(=O)c2cc4ccccc4c(O)c2C3=O)C[C@H](NC(=O)C(F)(F)F)[C@@H]1O` [BCH-1676, (1'S,1R,3S)-5,12-dioxo-3-(1,1-difluoroethyl)-6-hydroxy-1-(2',3',6'-trideoxy-3'-trifluoroacetamido-L-lyxohexopyranose)-3,4,5,12-tetrahydroanthraceno-[2,3-c]-pyran], the IC50 is 3050 nM in the test with HT29 (setting [1]), 2310 nM in the test on LOX (read-out: IC50), 4010 nM with SKVLB (read-out: IC50) and 2460 nM with SKOV3 (setting [2]). In the test on SKVLB, the VLB/OV3 was determined as 1.63.

`COP(=O)(CC(=O)[C@@H]1CC2=C(C(=O)c3cc4ccccc4c(O)c3C2=O)[C@@H](O[C@H]2C[C@H](NC(=O)C(F)(F)F)[C@H](O)[C@H](C)O2)O1)OC` [BCH-1678]: the IC50 with HT29 (Homo sapiens, HT-29, HT29) came out at 5650 nM; in the test with LOX, 3770 nM; in the test with SKVLB, 13600 nM; with SKOV3 (Homo sapiens, SK-OV-3, SKOV3), 5360 nM. Besides, in the test with SKVLB, the VLB/OV3 is 2.54.

`COP(=O)(CC(=O)[C@H]1CC2=C(C(=O)c3cc4ccccc4c(O)c3C2=O)[C@H](O[C@H]2C[C@H](NC(=O)C(F)(F)F)[C@H](O)[C@H](C)O2)O1)OC` [BCH-1679]: the IC50 came out at 1100 nM in the test on HT29 (Homo sapiens, HT-29, HT29); 1100 nM in the test with LOX; 3600 nM in the test with SKVLB; 1200 nM in the test on SKOV3 (Homo sapiens, SK-OV-3, SKOV3).

In the case of `CC(=O)[C@H]1CC2=C(C(=O)c3cc4ccccc4c(O)c3C2=O)[C@H](O[C@@H]2O[C@@H](C)[C@@H](O)[C@@H](O)C2I)O1` (some centres unmarked) [BCH-1681], the IC50 with HT29 (setting [1]) is 123 nM; in the test with LOX (read-out: IC50), 454 nM; in the test on SKVLB (read-out: IC50), 671 nM; in the test on SKOV3 (setting [2]) it was 914 nM. Besides, in the test on SKVLB, the VLB/OV3 came to 0.73.

As to `CC(NC(=O)C(F)(F)F)C1Cc2c(O)c3c(c(O)c2C(O[C@H]2C[C@H](O)[C@H](O)[C@H](C)O2)O1)C(=O)c1ccccc1C3=O` (some centres unmarked) [BCH-1682], the IC50 in the test on HT29 (setting [1]) is 25800 nM; with LOX (read-out: IC50), 16400 nM; with SKVLB (read-out: IC50), greater than 100000 nM; in the test with SKOV3 (setting [2]) it was 24700 nM.

As to `CC(N)C1Cc2c(O)c3c(c(O)c2C(O[C@H]2C[C@H](O)[C@H](O)[C@H](C)O2)O1)C(=O)c1ccccc1C3=O` (stereo partly drawn) [BCH-1683, (1'S ,1S,3R)-3(aminoethyl)-5,12-dihydroxyl-1(2,3,6-trideoxy-3,4-dihydroxy-L-lyxohexopyranose)-6,11-dioxo-3,4,6,11-tetrahydro-1H-anthra[2,3-c]pyran hydrochloride], the IC50 amounted to 1350 nM in the test on HT29 (setting [1]), 2290 nM in the test on LOX (read-out: IC50), 11400 nM in the test on SKVLB (read-out: IC50) and 3070 nM in the test on SKOV3 (setting [2]). For the same compound, the VLB/OV3 in the test on SKVLB turned out to be 3.71.

With `CC(=O)[C@@H]1Cc2c(O)c3c(c(O)c2[C@@H](O[C@H]2O[C@H](CO)[C@@H](O)[C@H](O)[C@H]2N)O1)C(=O)c1ccccc1C3=O` [BCH-1685, (1'R, 1R,3S)-3-aceto-5,12-dihydroxy-1(2-deoxy-2-amino-D-glucopyranose)-6,11-dioxo-3,4,6,11-tetrahydro-1H-anthra-[2,3-c]pyran], the half-maximal inhibitory concentration (IC50) in the test on HT29 (setting [1]) stood at 1930 nM; in the test with LOX (read-out: IC50), 683 nM; in the test with SKVLB (read-out: IC50), 53200 nM; with SKOV3 (setting [2]), 810 nM. For the same compound, in the test on SKVLB, the VLB/OV3 was determined as 65.68.

With `C=CC[C@H]1CC2=C(C(=O)c3cc4ccccc4c(O)c3C2=O)[C@H](O[C@H]2C[C@H](NC(=O)C(F)(F)F)[C@H](O)[C@H](C)O2)O1` [BCH-1686, (1'S,1S,3S)-3-(6-hydroxy-1-(2',3',6'-trideoxy-3'-trifluoroacetamido-4'-hydroxy-L-lyxohexopyranose)-5,12-dioxo-3,4,5,12-tetrahydroanthraceno-[2,3-C]pyran-3-yl)propene], the half-maximal inhibitory concentration (IC50) in the test on HT29 (setting [1]) worked out at 1840 nM; in the test on LOX (read-out: IC50), 684 nM; in the test on SKVLB (read-out: IC50) it was 2530 nM; in the test with SKOV3 (setting [2]), 972 nM. For the same compound, the VLB/OV3 in the test with SKVLB came to 2.60.

For `C=CC[C@@H]1CC2=C(C(=O)c3cc4ccccc4c(O)c3C2=O)[C@@H](O[C@H]2C[C@H](NC(=O)C(F)(F)F)[C@H](O)[C@H](C)O2)O1` [BCH-1687, (1S,1R,3R)-3-(6-hydroxy-1-(2',3',6'-trideoxy-3'-trifluoroacetamido-4'-hydroxy-L-lyxohexopyranose)-5,12-dioxo-3,4,5,12-tetrahydroanthraceno-[2,3-c]pyran-3-yl)propene], the IC50 in the test on HT29 (setting [1]) amounted to 1240 nM; with LOX (read-out: IC50), 706 nM; in the test on SKVLB (read-out: IC50) it was 1860 nM; in the test on SKOV3 (setting [2]) it was 791 nM. Also, the VLB/OV3 with SKVLB amounted to 2.35.

Consider `C=CC[C@@H]1CC2=C(C(=O)c3cc4ccccc4c(O)c3C2=O)[C@@H](O[C@H]2C[C@H](N)[C@H](O)[C@H](C)O2)O1` [BCH-2005, (1'S,1R,3R)-3-(6-hydroxy-1-(2',3',6'-trideoxy-3'-amino-4'-hydroxy-L-lyxohexopyranose)-5,12-dioxo-3,4,5,12-tetrahydroanthraceno-[2,3-c]pyran-3-yl)propene hydrochloride], for which the IC50 with HT29 (setting [1]) worked out at 245 nM; with LOX (read-out: IC50), 138 nM; in the test on SKVLB (read-out: IC50), 364 nM; with SKOV3 (setting [2]), 341 nM. Further, the VLB/OV3 in the test on SKVLB is on record as 1.07.

As for `C=CC[C@@H]1Cc2c(O)c3c(c(O)c2[C@@H](O[C@H]2C[C@H](NC(=O)C(F)(F)F)[C@H](O)[C@H](C)O2)O1)C(=O)c1ccccc1C3=O` [BCH-2108, (1'S,1R,3R)-3-(5,12-dihydroxy-1-(2',3',6'-trideoxy-3'-trifluoroacetamido-4'-hydroxy-L-lyxohexopyranose)-6,11-dioxo-3,4,5,12-tetrahydroanthraceno-[2,3-c]pyran-3-yl)propene], the IC50 is 8520 nM with HT29 (setting [1]); 11900 nM in the test on T47D (Homo sapiens, read-out: IC50); 14300 nM in the test with SKVLB (read-out: IC50); 11400 nM with SKOV3 (setting [2]). Also, the VLB/OV3 in the test on SKVLB is reported as 1.25.

Consider `C=CC[C@H]1Cc2c(O)c3c(c(O)c2[C@H](O[C@H]2C[C@H](NC(=O)NCCCl)[C@H](O)[C@H](C)O2)O1)C(=O)c1ccccc1C3=O` [BCH-2110], for which the IC50 in the test with HT29 (Homo sapiens, HT-29, HT29) came to 1510 nM; in the test with T47D (Homo sapiens) it was 2460 nM; with SKVLB, 2830 nM; with SKOV3 (Homo sapiens, SK-OV-3, SKOV3) it was 2480 nM. Besides, the VLB/OV3 with SKVLB came out at 1.14.

Turning to `CC(=O)C1Cc2c(O)c3c(c(O)c2C(OC2CCC(NC(=O)N(CCCl)N=O)CC2)O1)C(=O)c1ccccc1C3=O` [BCH-2116, (1R,3S) and (1S ,3R)-3-aceto-6,11-dioxo-5,12-dihydroxy-1(4-chloroethylnitrosoureido-cyclohexyl-oxy)-3,4,6,11-tetrahydro-1H-anthra[2,3-C]pyran], the 50% inhibitory concentration (IC50) in the test on HT29 (Homo sapiens, HT-29, HT29) is 23300 nM; with T47D (Homo sapiens), 22700 nM; with SKVLB, 50100 nM; in the test on SKOV3 (Homo sapiens, SK-OV-3, SKOV3), 18700 nM. Moreover, the VLB/OV3 in the test on SKVLB was 2.68.

Source of the values: patent publication US5593970A, “Heterocyclic anthracycline analogs” (priority 1994, dated 1997).
